These results are taken from US7879857B2, “6-substituted 2-quinolinones and 2-quinoxalinones as poly (adp-ribose) polymerase inhibitors” (Janssen Pharmaceutica NV, priority 2003, dated 2011).

Data set [1] has as its target T1, PARP-1 enzyme (Homo sapiens, UniProt P09874).
T1 construct: made in house
Nature of the data set: In vitro filtration assay for PARP-1 inhibitory activity. In kind it is biochemical. As to conditions: [32P]-NAD as ADP-ribosyl donor, histones, nicked DNA; read-out: In vitro filtration assay pIC50 (converted). On the procedure:
In Vitro Filtration Assay for PARP-1 Inhibitory Activity
Compounds of the present invention were tested in an in vitro filtration assay assessing PARP-1 activity (triggered in the presence of nicked DNA) by means of its histone poly (ADP-ribosyl)ation activity using [^32P]-NAD as ADP-ribosyl donor. The radioactive ribosylated histones were precipitated by trichIoroacetic acid (TCA) in 96-well filterplates and the incorporated [^32P] measured using a scintillation counter
A mixture of histones (stock solution: 5 mg/ml in H2O), NAD^+ (stock solution: 100 mM in H2O), and [^32P]-NAD^+ in incubation buffer (50 mM Tris/HCl, pH 8; 0.2 mM DTT; 4 mM MgCl2) was made. A mixture of the PARP-1 enzyme (5-10 μg/ml) and nicked DNA was also made. The nicked DNA was prepared as described in the in vitro SPA for PARP-1 inhibitory activity. Seventy-five μl of the PARP-1 enzyme/DNA mixture together with 1 μl of compound in DMSO and 25 μl of histones-NAD^+/[^32P]-NAD^+ mixture was added per well of a 96-well filterplate (0.45 μm, supplier Millipore). The final concentrations in the incubation mixture were 2 μg/ml for the histones, 0.1 mM for the NAD^+, […] (0.5 μC) for the [^32P]-NAD^+ and 2 μg/ml for the nicked DNA. Plates were incubated for 15 min. at room temperature and the reaction was terminated by the addition of 10 μl ice cold 100% TCA followed by the addition of 10 μl ice-cold BSA solution (1% in H2O). The protein fraction was allowed to precipitate for 10 min. at 4° C. and plates were vacuum filtered. The plates were subsequently washed with, for each well, 1 ml of 10% ice cold TCA, 1 ml of 5% ice cold TCA and 1 ml of 5% TCA at room temperature. Finally 100 μl of scintillation solution (Microscint 40, Packard) was added to each well and the plates were transferred to a TopCountNXT™ (supplier: Packard) for scintillation counting and values were expressed as counts per minute (cpm). For each experiment, controls (containing PARP-1 enzyme and DMSO without compound), a blank incubation (containing DMSO but no PARP-1 enzyme or compound) and samples (containing PARP-1 enzyme and compound dissolved in DMSO) were run in parallel. All compounds tested were dissolved and eventually further diluted in DMSO. […] The control sample represented maximal PARP-1 enzyme activity. For each sample, the amount of cpm was expressed as a percentage of the mean cpm value of the controls. When appropriate, IC50-values (concentration of the drug, needed to reduce the PARP-1 enzyme activity to 50% of the control) were computed using linear interpolation between the experimental points just above and below the 50% level. Herein the effects of test compounds are expressed as pIC50 (the negative log value of the IC50-value). As a reference compound, 4-amino-1,8-naphthalimide was included to validate the filtration assay.

Data set [2] deals with T1, PARP-1 enzyme. Nature of the data set: In vitro Scintillation Proximity Assay (SPA) for PARP-1 inhibitory activity. In kind it is biochemical. To be noted: [3H]-NAD+ as ADP-ribosyl donor, biotinylated histones, nicked DNA; read-out: In vitro SPA pIC50 (converted). As to the method:
Pharmacological Example In Vitro Scintillation Proximity Assay (SPA) for PARP-1 Inhibitory Activity
Compounds of the present invention were tested in an in vitro assay based on SPA technology (proprietary to Amersham Phannacia Biotech).
In principle, the assay relies upon the well established SPA technology for the detection of poly(ADP-ribosyl)ation of biotinylated target proteins, i.e histones. This ribosylation is induced using nicked DNA activated PARP-1 enzyme and [^3H]-nicotinamide adenine dinucleotide ([^3H]-NAD^+) as ADP-ribosyl donor.
As inducer of PARP-1 enzyme activity, nicked DNA was prepared. For this, 25 mg of DNA (supplier: Sigma) was dissolved in 25 ml DNAse buffer (10 mM Tris-HCI, pH 7.4; 0.5 mg/ml Bovine Serum Albumine (BSA); 5 MM MgCl2.6H2O and 1 mM KCl) to which 50 μl DNAse solution (1 mg/ml in 0.15 M NaCl) was added. After an incubation of 90 min. at 37° C., the reaction was terminated by adding 1.45 g NaCl, followed by a further incubation at 58° C. for 15 min. The reaction mixture was cooled on ice and dialysed at 4° C. for respectively 1.5 and 2 hours against 1.51 of 0.2 M KCl, and twice against 1.51 of 0.01 M KCl for 1.5 and 2 h respectively. The mixture was aliquoted and stored at −20° C. Histones (1 mg/ml, type II-A, supplier: Sigma) were biotinylated using the biotinylation kit of Amersham and stored aliquoted at −20° C. A stock solution of 100 mg/ml SPA poly(vinyl toluene) (PVT) beads (supplier: Amersham) was made in PBS. A stock solution of [^3H]-NAD^+ was made by adding 120 μl of [^3H]-NAD^+ (0.1 mCi/ml, supplier: NEN) to 6 ml incubation buffer (50 mM Tris/HCl, pH 8; 0.2 mM DTT; 4 mM MgCl2). A solution of 4 mM NAD^+ (supplier: Roche) was made in incubation buffer (from a 100 mM stock solution in water stored at −20° C.). The PARP-1 enzyme was produced using art known techniques, i.e. cloning and expression of the protein starting from human liver cDNA. Information concerning the used protein sequence of the PARP-1 enzyme including literature references can be found in the Swiss-Prot database under primary accession number P09874. Biotinylated histones and PVT-SPA beads were mixed and pre-incubated for 30 min. at room temperature. PARP-1 enzyme (concentration was lot dependent) was mixed with the nicked DNA and the mixture was pre-incubated for 30 min. at 4° C. Equal parts of this histones/PVT-SPA beads solution and PARP-1 enzyme/DNA solution were mixed and 75 μl of this mixture together with 1 μl of compound in DMSO and 25 μl of [^3H]-NAD^+ was added per well into a 96-well microtiterplate. The final concentrations in the incubation mixture were 2 μg/ml for the biotinylated histones, 2 mg/ml for the PVT-SPA beads, 2 μg/ml for the nicked DNA and between 5-10 μg/ml for the PARP-1 enzyme. After incubation of the mixture for 15 min. at room temperature, the reaction was terminated by adding 100 μl of 4 mM NAD^+ in incubation buffer (final concentration 2 mM) and plates were mixed.
The beads were allowed to sediment for at least 15 min. and plates transferred to a TopCountNXTT™ (Packard) for scintillation counting, values were expressed as counts per minute (cpm). For each experiment, controls (containing PARP-1 enzyme and DMSO without compound), a blank incubation (containing DMSO but no PARP-1 enzyme or compound) and samples (containing PARP-1 enzyme and compound dissolved in DMSO) were run in parallel. All compounds tested were dissolved and eventually further diluted in DMSO. […] The control sample represented maximal PARP-1 enzyme activity. For each sample, the amount of cpm was expressed as a percentage of the mean cpm value of the controls. When appropriate, IC50-values (concentration of the drug, needed to reduce the PARP-1 enzyme activity to 50% of the control) were computed using linear interpolation between the experimental points just above and below the 50% level. Herein the effects of test compounds are expressed as pIC50(the negative log value of the IC50-value). […]
Background: SPA uses beads or plates that emit light when radiolabelled molecules are held near them.

For data set [3] the following is noted: rabbits, cited from earlier work.
For data set [4] the following is noted: rats with hapten-induced colitis; cited from earlier work.

T1 sequence (P09874 whole entry): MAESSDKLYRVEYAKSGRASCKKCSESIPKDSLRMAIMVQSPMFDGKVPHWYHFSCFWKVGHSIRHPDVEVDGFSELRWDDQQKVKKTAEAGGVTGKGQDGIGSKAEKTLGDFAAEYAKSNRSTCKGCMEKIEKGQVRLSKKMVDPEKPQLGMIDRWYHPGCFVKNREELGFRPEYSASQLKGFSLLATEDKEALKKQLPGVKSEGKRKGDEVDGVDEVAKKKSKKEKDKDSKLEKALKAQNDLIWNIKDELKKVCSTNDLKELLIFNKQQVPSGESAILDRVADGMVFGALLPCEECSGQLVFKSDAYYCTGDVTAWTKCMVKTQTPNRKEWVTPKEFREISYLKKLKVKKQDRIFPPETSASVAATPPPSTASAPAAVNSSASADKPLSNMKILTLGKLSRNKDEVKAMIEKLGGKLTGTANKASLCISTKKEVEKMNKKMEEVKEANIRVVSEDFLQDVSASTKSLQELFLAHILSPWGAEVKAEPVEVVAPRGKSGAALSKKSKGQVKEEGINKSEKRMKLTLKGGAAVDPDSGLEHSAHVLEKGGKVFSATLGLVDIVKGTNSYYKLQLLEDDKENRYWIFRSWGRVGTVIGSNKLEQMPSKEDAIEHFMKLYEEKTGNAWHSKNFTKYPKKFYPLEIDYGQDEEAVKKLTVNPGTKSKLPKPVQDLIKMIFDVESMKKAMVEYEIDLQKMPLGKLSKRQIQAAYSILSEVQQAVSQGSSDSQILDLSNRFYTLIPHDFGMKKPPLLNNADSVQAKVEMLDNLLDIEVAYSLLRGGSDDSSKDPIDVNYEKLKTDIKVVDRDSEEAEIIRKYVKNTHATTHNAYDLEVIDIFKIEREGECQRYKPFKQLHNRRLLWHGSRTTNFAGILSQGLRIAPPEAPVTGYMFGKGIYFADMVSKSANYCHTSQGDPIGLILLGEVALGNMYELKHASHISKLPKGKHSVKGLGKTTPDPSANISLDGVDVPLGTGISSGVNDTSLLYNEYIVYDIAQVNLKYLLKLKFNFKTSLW

For the compound `CCCCC(c1ccc2[nH]c(=O)c(C)nc2c1)n1ccnc1` (stereo not shown) [Compound 25, 6-[1-(1H-imidazol-1-yl)pentyl]-3-methyl-2(1H)-quinoxalinone], the IC50 is 4630 nM on PARP-1 enzyme [1] and 1000 nM at PARP-1 enzyme [2].
Regarding `CCc1nc2cc(C(=O)C(C)C)ccc2[nH]c1=O` [Compound 9], the IC50 on PARP-1 enzyme [2] was 743 nM.
Same read-out and setting: in the case of `CCc1nc2cc(C(O)C(C)C)ccc2[nH]c1=O` (stereo not shown) [Compound 19] it was 746 nM.
As to `CCc1cc2cc(C(O)CN(C)C)ccc2[nH]c1=O` (stereo not shown) [Compound 7], the melting point (usually the temperature, or range, at which the solid turns liquid) was 131 °C. The IC50 on PARP-1 enzyme [1] was 773 nM. Besides, the IC50 on PARP-1 enzyme [2] is 212 nM.
Take `CCc1nc2cc(C(NCCN3CCC(C(=O)c4ccc(F)cc4)CC3)C(C)C)ccc2[nH]c1=O` (stereo not shown) [Compound 10]: the IC50 on PARP-1 enzyme [2] is 740 nM.
On to `CCc1cc2cc(C(=O)CN(C)C)ccc2[nH]c1=O` [Compound 3], for which the melting point was 180 °C. In addition, the IC50 on PARP-1 enzyme [1] is 2590 nM. Further, the IC50 on PARP-1 enzyme [2] was 259 nM.
As for `Cc1cc2cc(C(C)NC=O)ccc2[nH]c1=O` (stereo not shown) [Compound 18], the IC50 at PARP-1 enzyme [1] is 6370 nM; on PARP-1 enzyme [2] it was 1020 nM.
Taken in the same sequence, the figures for `CCc1cc2cc(C(O)C(CC)CC)ccc2[nH]c1=O` (stereo not shown) [Compound 5] were 638 nM and 156 nM.
As to `CC(C)C(c1ccc2[nH]c(=O)c(-c3ccsc3)nc2c1)n1ccnc1` (stereo not shown) [Compound 24, 6-[1-(1H-imidazol-1-yl)-2-methylpropyl]-3-(3-thienyl)-2(1H)-quinoxalinone], the IC50 is 4860 nM on PARP-1 enzyme [1] and 561 nM on PARP-1 enzyme [2].
Turning to `NC(=O)c1cccc(N)c1` [3-amino-benzamide], the “reduction in infarct size in the heart” value in data set [3] (single injection 10 mg/kg, one minute before occlusion or one minute before reperfusion) was 32-42%. Also, the “effect on inflammatory response, morphology and energetic status of the distal colon” value in data set [4] was “reduced the inflammatory response and restored the morphology and the energetic status of the distal colon”.
Turning to `CCc1nc2cc(C(C(C)C)n3ccnc3)ccc2[nH]c1=O` (stereo not shown) [Compound 21, 3-ethyl-6-[1-(1H-imidazol-1-yl)-2-methylpropyl]-2(1H)-quinoxalinone], the IC50 at PARP-1 enzyme [1] was 1100 nM; at PARP-1 enzyme [2] it was 227 nM.
Take `CCc1cc2cc(CCNCCCN3CCCCC3)ccc2[nH]c1=O` [Compound 11]: at PARP-1 enzyme [2], the IC50 was 327 nM.
Still for that read-out and setting: as for `CCc1nc2cc(C(NCCCN3CCCCC3)C(C)C)ccc2[nH]c1=O` (stereo not shown) [Compound 13], the figure is 368 nM.
`Cc1cc2cc(C(CCN(C)C)c3ccco3)ccc2[nH]c1=O` (stereo not shown) [Compound 4]: the IC50 was 7570 nM at PARP-1 enzyme [1] and 1040 nM on PARP-1 enzyme [2].
Consider `Oc1cccc2c(O)nccc12` [1,5-dihydroxyisoquinoline], for which, in data set [3] (single injection 1 mg/kg), the “reduction in infarct size” value is recorded as 38-48%.
As for `CCc1nc2cc(C(C(C)C)n3cncn3)ccc2[nH]c1=O` (stereo not shown) [Compound 20, 3-ethyl-6-[2-methyl-1-(1H-1,2,4-triazol-1-yl)propyl]-2(1H)-quinoxalinone], the IC50 was 2280 nM at PARP-1 enzyme [1] and 438 nM at PARP-1 enzyme [2].
On to `Cc1cc2cc(C(O)(CCN(C)C)c3ccccn3)ccc2[nH]c1=O` (stereo not shown) [Compound 16], for which the IC50 at PARP-1 enzyme [1] was 2160 nM; at PARP-1 enzyme [2] it was 470 nM.
Turning to `CC(C)C(c1ccc2[nH]c(=O)c(-c3cccs3)nc2c1)n1cncn1` (stereo not shown) [Compound 22, 6-[2-methyl-1-(1H-1,2,4-triazol-1-yl)propyl]-3-(2-thienyl)-2(1H)-quinoxalinone], the values for the IC50 at PARP-1 enzyme [1] and at PARP-1 enzyme [2] were 4330 nM and 838 nM, respectively.
In the case of `CCc1cc2cc(CCNCCCN(C)Cc3ccccc3)ccc2[nH]c1=O` [Compound 12], the IC50 at PARP-1 enzyme [2] is 687 nM.
Regarding `CCOC(=O)Cc1ccc2[nH]c(=O)c(CC)nc2c1` [Compound 8], the IC50 at PARP-1 enzyme [2] was 975 nM.
As to `CCc1cc2cc(C(O)C3CC=CCC3)ccc2[nH]c1=O` (stereo not shown) [Compound 17], the IC50 is 1470 nM on PARP-1 enzyme [1] and 198 nM on PARP-1 enzyme [2].
In the same order, the values of `CC(C)C(c1ccc2[nH]c(=O)c(-c3ccsc3)nc2c1)n1cncn1` (stereo not shown) [Compound 23, 6-[2-methyl-1-(1H-1,2,4-triazol-1-yl)propyl]-3-(thienyl)-2(1H)-quinoxalinone] are 7130 nM and 1430 nM.
Turning to `Cc1cc2cc(C(CCc3ccccc3)NC=O)ccc2[nH]c1=O` (stereo not shown) [Compound 6], the melting point is 221.3 °C. On PARP-1 enzyme [1], the IC50 is 10000 nM. Also, the IC50 at PARP-1 enzyme [2] was 769 nM.
Turning to `Cc1cc2cc(C(NCCCN3CCCCC3)C(C)C)ccc2[nH]c1=O` (stereo not shown) [Compound 15], the IC50 was 3620 nM at PARP-1 enzyme [1] and 1260 nM at PARP-1 enzyme [2].
For `CCc1nc2cc(C(NCCCN(C)Cc3ccccc3)C(C)C)ccc2[nH]c1=O` (stereo not shown) [Compound 14], the IC50 on PARP-1 enzyme [2] was 499 nM.
With `CCc1nc2cc(C(NC=O)C(C)C)ccc2[nH]c1=O` (stereo not shown) [Compound 1], the melting point turned out to be 204 °C. For the same compound, the IC50 at PARP-1 enzyme [2] was 221 nM.
With `Cc1cc2cc(C(C(C)C)n3ccnc3)ccc2[nH]c1=O` (stereo not shown) [Compound 2], the melting point is 211.4 °C. Further, the IC50 on PARP-1 enzyme [1] is 5350 nM. The IC50 at PARP-1 enzyme [2] was 522 nM.
